Reference: publication PMC6017631, “The Effect of Combining Natural Terpenes and Antituberculous Agents against Reference and Clinical Mycobacterium tuberculosis Strains” (Molecules : A Journal of Synthetic Chemistry and Natural …, 2018)
≈ marks a conversion by molar mass, not a printed value. Read-outs that look alike come from different tables or passages of the source.

What was measured:
M. tuberculosis H37Rv = conditions: H37Rv and some Mtb drug-resistant clinical isolates ref 2, 60, 61, cited from earlier work
[1] = tested on: clinical isolate 12331 (IRE resistant); assay: microbe, parasite or virus in culture; type: cell-based, Mycobacterium tuberculosis
[2] = tested on: clinical isolate 126 (INH resistant); assay: microbe, parasite or virus in culture; type: cell-based, Mycobacterium tuberculosis
[3] = tested on: clinical isolate 85/13 (Beijing, SIRE resistant); assay: microbe, parasite or virus in culture; type: cell-based, Mycobacterium tuberculosis
[4] = compounds tested separately, 12331
[5] = compounds tested separately, 126
[6] = compounds tested separately, 85/13
[7] = Mycobacterium tuberculosis, read-out: MIC for EMB in a Presence of Terpenes
[8] = Mycobacterium tuberculosis, read-out: MIC for INH in a Presence of Terpenes
[9] = Mycobacterium tuberculosis, read-out: MIC for RMP in a Presence of Terpenes

CCCCCCCC/C=C\CCCCCCCC(=O)O [oleic acid]
FICI (M. tuberculosis H37Rv; in combination with isoniazid, rifampicin and ethambutol): 0.09–0.36

CO[C@H]1/C=C/O[C@@]2(C)Oc3c(C)c(O)c4c(O)c(c(/C=N/N5CCN(C)CC5)c(O)c4c3C2=O)NC(=O)/C(C)=C\C=C\[C@H](C)[C@H](O)[C@@H](C)[C@@H](O)[C@@H](C)[C@H](OC(C)=O)[C@@H]1C [RMP, rifampicin, reference compound]
MIC ([1]; Mycobacterium tuberculosis): 256 µg/mL (≈ 311 µM)
MIC ([2]; Mycobacterium tuberculosis): 0.25 µg/mL (≈ 0.304 µM)
MIC ([3]; Mycobacterium tuberculosis): 128 µg/mL (≈ 156 µM)

C=C(C)[C@H]1CC=C(C)CC1 [(R)-limonene]
MIC [1, 4]: 128 µg/mL (≈ 940 µM)
MIC [2, 5]: 128 µg/mL (≈ 940 µM)
MIC [3, 6]: 256 µg/mL (≈ 1880 µM)

CC[C@@H](CO)NCCN[C@@H](CC)CO [EMB, ethambutol, reference compound]
MIC ([1]; Mycobacterium tuberculosis): 16 µg/mL (≈ 78.3 µM)
MIC ([2]; Mycobacterium tuberculosis): 0.25 µg/mL (≈ 1.22 µM)
MIC ([3]; Mycobacterium tuberculosis): 16 µg/mL (≈ 78.3 µM)

C=CC(=C)CCC=C(C)C [myrcene]
MIC ([1]; Mycobacterium tuberculosis): 512 µg/mL (≈ 3760 µM)
MIC [1, 7]: 16 µg/mL
MIC [1, 8]: 16 µg/mL
MIC [1, 9]: 256 µg/mL
MIC ([2]; Mycobacterium tuberculosis): 256 µg/mL (≈ 1880 µM)
MIC [2, 7]: 0.25 µg/mL
MIC [2, 8]: 0.5 µg/mL
MIC [2, 9]: 0.25 µg/mL
MIC ([3]; Mycobacterium tuberculosis): > 512 µg/mL
MIC [3, 7]: 16 µg/mL
MIC [3, 8]: 16 µg/mL
MIC [3, 9]: 128 µg/mL

C=C[C@]1(C)CC[C@@H](C(=C)C)C[C@H]1C(=C)C [β-elemene]
MIC [1, 4]: 256 µg/mL (≈ 1250 µM)
MIC [2, 5]: 256 µg/mL (≈ 1250 µM)
MIC [3, 6]: >512 µg/mL

Cc1cc(O)c2c(c1)C(=O)C=CC2=O [7-methyljuglone]
FICI (M. tuberculosis H37Rv; in combination with isoniazid): 0.2
FICI (M. tuberculosis H37Rv; with rifampicin): 0.5

CC1=CCC2CC1C2(C)C (stereo not drawn) [α-pinene]
MIC ([1]; Mycobacterium tuberculosis): > 512 µg/mL
MIC [1, 7]: 16 µg/mL
MIC [1, 8]: 16 µg/mL
MIC [1, 9]: 256 µg/mL
MIC ([2]; Mycobacterium tuberculosis): 128 µg/mL (≈ 940 µM)
MIC [2, 7]: 0.25 µg/mL
MIC [2, 8]: 0.5 µg/mL
MIC [2, 9]: 0.25 µg/mL
MIC ([3]; Mycobacterium tuberculosis): 512 µg/mL (≈ 3760 µM)
MIC [3, 7]: 16 µg/mL
MIC [3, 8]: 16 µg/mL
MIC [3, 9]: 128 µg/mL

CC(C)=CCC[C@](C)(O)C1CC=C(C)CC1 (stereo partly shown) [bisabolol]
MIC [1, 4]: 256 µg/mL (≈ 1150 µM)
MIC [2, 5]: 32 µg/mL (≈ 144 µM)
MIC [3, 6]: 128 µg/mL (≈ 576 µM)

CC(=O)c1c(O)c(C)c(O)c2c1OC1=CC(=O)C(C(C)=O)C(=O)C12C (stereo not shown) [usnic acid]
FICI (M. tuberculosis H37Rv; with rifampicin): 0.25–0.38

NNC(=O)c1ccncc1 [INH, isoniazid, reference compound]
MIC ([1]; Mycobacterium tuberculosis): 16 µg/mL (≈ 117 µM)
MIC ([2]; Mycobacterium tuberculosis): 0.5 µg/mL (≈ 3.65 µM)
MIC ([3]; Mycobacterium tuberculosis): 16 µg/mL (≈ 117 µM)

(S)-limonene
MIC [1, 4]: 512 µg/mL
MIC [2, 5]: 256 µg/mL
MIC [3, 6]: >512 µg/mL

C=C1CCC2(C(C)C)CC12 (stereo not shown) [sabinene]
MIC ([1]; Mycobacterium tuberculosis): > 512 µg/mL
MIC [1, 7]: 16 µg/mL
MIC [1, 8]: 16 µg/mL
MIC [1, 9]: 256 µg/mL
MIC ([2]; Mycobacterium tuberculosis): 128 µg/mL (≈ 940 µM)
MIC [2, 7]: 0.25 µg/mL
MIC [2, 8]: 0.5 µg/mL
MIC [2, 9]: 0.25 µg/mL
MIC ([3]; Mycobacterium tuberculosis): 512 µg/mL (≈ 3760 µM)
MIC [3, 7]: 16 µg/mL
MIC [3, 8]: 16 µg/mL
MIC [3, 9]: 128 µg/mL
